Data taken from US20250282802A1, “P[…] AND METHODS” (priority 2020, published 2025).
Where two headings read alike, the source gives them in different places.

Experiments:
[1] = system: HFF-1 (human fibroblast cells); test: Cell culture cytotoxicity screening (Alamar Blue), HFF-1; assay type: cell-based; settings: HFF-1, Alamar Blue, 72 hours
Protocol: (§1) Cell culture cytotoxicity screening. The compounds were evaluated for their ability to kill cancer cell lines in culture, using HOS (osteosarcoma); ES-2 (ovarian cancer); HCT 116 (colon cancer); A549 (lung carcinoma); and A172 (glioma) cells. Human skin fibroblast cells (HFF-1) were also assessed. Cells were seeded (3000 cells well^−1 for ES-2, HCT 116, A549 and A172; 4000 cells well^−1 for HFF-1 and 2500 cells well^−1 for HOS) in a 96-well plate and allowed to attach overnight. Cells were treated with pantaphos in water. The concentrations of the tested compounds were 5 nM to 100 μM (1% water final; 100 μl well^−1). Raptinal (50 μM) was used as a dead control. On each plate, five technical replicates per compound were performed. 72 hours post-treatment, cell viability was assessed using the Alamar Blue method (http://www.bio-rad-antibodies.com/measuring-cytotoxicity-proliferation-spectrophotometry-fluorescence-alamarBlue.html). Alamar Blue solution (10 μl of 440 μM resazurin in sterile 1×PBS) was added to each well, and the plate was incubated for 3-4 hrs. Conversion of Alamar Blue was measured with a plate reader (SpectraMax M3; Molecular Devices) by fluorescence (excitation wavelength: 555 nm; emission wavelength: 585 nm; cutoff 570 nm; autogain). Percentage death was determined by normalizing to water-treated cells and Raptinal-treated cells. […]

[2] = system: Klebsiella pneumoniae ATCC 27736; test: Antibacterial bioassay (MIC), Klebsiella pneumoniae; assay type: cell-based; settings: CLSI
Protocol: (§2) Antibacterial bioassays. Susceptibility testing for the ESKAPE pathogens and Salmonella enterica LT2 was performed using a Kirby-Bauer method as outlined by the Clinical and Laboratory Standards Institute (CLSI). For rich media bioassays, Mueller Hinton Broth 2 (MH-2, Sigma-Aldrich, 90922) was used for all strains except 1% BHI was supplemented for Enterococcus faecalis ATCC 19433. For minimal media bioassays, glucose-MOPS minimal medium was used. Briefly, overnight bacterial cultures were sub-cultured and inoculated into 5 mL top agar (0.7% agar) for final concentration of 5×10^5 CFU/mL. Then, 20 μL of a compound 2-fold dilution series (200, 100, 50, 25, 12.5, 6.25 μM in water) was spotted on 6 mm diameter blank paper discs (BD BBL™ 231039). Control discs received 20 μL of 50 mg/mL kanamycin. Plates were incubated at 35° C. for 20-24 hours. […] Sensitivity of the IPTG-inducible phosphonate uptake strain WM6242 to pantaphos was tested using a disk diffusion assay. Plates containing growth medium were overlayed with 5 mL of top agar (0.7% agar) inoculated with 100 μL (OD600=0.8) of the phosphonate-specific E. coli indicator strain (WM6242) with or without addition of 1 mM IPTG. WM6242 is engineered with an IPTG-inducible, non-specific phosphonate uptake system (phnCDE). […]

[3] = system: Escherichia coli ATCC 25922; test: Antibacterial bioassay (MIC), Escherichia coli ATCC 25922; assay type: cell-based; settings: CLSI
Protocol: as §2

U87 (glioblastoma) = test: Cytotoxicity profiling (Alamar Blue), U87; assay type: cell-based; settings: Homo sapiens, 72-hour treatment
Protocol: (§3) FIG. 8. Cytotoxicity of pantaphos across various cancer cell lines. Assays were conducted as described (mBio. 2021 Feb. 2; 12(1):e03402-20), using the Alamar Blue method with 72-hour treatment using Raptinal ([…]) as Dead cell control; n=3. Cell seeding densities: CT26 (colon carcinoma) 2000 c/w; HOS (osteosarcoma) 2500 c/w; ES-2 (ovarian carcinoma), HCT-116 (colorectal carcinoma), A-549 (lung carcinoma), A-172 (glioblastoma), D54 (glioblastoma), U87 (glioblastoma), T98G (glioblastoma), SK-ML-28 (melanoma), MCF-7 (breast cancer), AM38 (glioblastoma) and MDA-MB-231 (breast cancer) 3000 c/w; U118MG (malignant glioma) 4000 c/w; HepG2 (liver cancer) 8000 c/w. c/w=cells per well. […]
(§4) Cell culture cytotoxicity screening. The compounds were evaluated for their ability to kill cancer cell lines in culture, using HOS (osteosarcoma); ES-2 (ovarian cancer); HCT 116 (colon cancer); A549 (lung carcinoma); and A172 (glioma) cells. Human skin fibroblast cells (HFF-1) were also assessed. […] 72 hours post-treatment, cell viability was assessed using the Alamar Blue method (http://www.bio-rad-antibodies.com/measuring-cytotoxicity-proliferation-spectrophotometry-fluorescence-alamarBlue.html). […] Conversion of Alamar Blue was measured with a plate reader (SpectraMax M3; Molecular Devices) by fluorescence (excitation wavelength: 555 nm; emission wavelength: 585 nm; cutoff 570 nm; autogain). […]

SK-ML-28 (melanoma) = test: Cytotoxicity profiling (Alamar Blue), SK-ML-28; assay type: cell-based; settings: Homo sapiens; SK-ML-28, Alamar Blue, 72-hour treatment
Protocol: as §3, §4

[4] = system: ES-2 (human ovarian cancer); test: Cell culture cytotoxicity screening (Alamar Blue), ES-2; assay type: cell-based; settings: for IC50: ES-2, Alamar Blue
Protocol: (§5) FIG. 8. Cytotoxicity of pantaphos across various cancer cell lines. Assays were conducted as described (mBio. 2021 Feb. 2; 12(1):e03402-20), using the Alamar Blue method with 72-hour treatment using Raptinal ([…]) as Dead cell control; n=3. Cell seeding densities: CT26 (colon carcinoma) 2000 c/w; HOS (osteosarcoma) 2500 c/w; ES-2 (ovarian carcinoma), HCT-116 (colorectal carcinoma), A-549 (lung carcinoma), A-172 (glioblastoma), D54 (glioblastoma), U87 (glioblastoma), T98G (glioblastoma), SK-ML-28 (melanoma), MCF-7 (breast cancer), AM38 (glioblastoma) and MDA-MB-231 (breast cancer) 3000 c/w; U118MG (malignant glioma) 4000 c/w; HepG2 (liver cancer) 8000 c/w. c/w=cells per well. IC50 and Emax values shown in Table 6 were extracted from the raw data plotted in FIG. 8.
as §1, with “Alamar Blue solution (10 μl of 440 μM resazurin in sterile 1×PBS) was added to each well, and the plate was incubated for 3-4 hrs.” left out

HepG2 (liver cancer) = test: Cytotoxicity profiling (Alamar Blue), HepG2; assay type: cell-based, human
Protocol: as §5
as §1, with “Alamar Blue solution (10 μl of 440 μM resazurin in sterile 1×PBS) was added to each well, and the plate was incubated for 3-4 hrs.” left out

[5] = system: MDA-MB-231 (breast cancer); test: Cytotoxicity profiling (Alamar Blue), MDA-MB-231; assay type: cell-based, human
Protocol: as §5
as §1, with “Alamar Blue solution (10 μl of 440 μM resazurin in sterile 1×PBS) was added to each well, and the plate was incubated for 3-4 hrs.” left out

AM38 (glioblastoma) = test: Cytotoxicity profiling (Alamar Blue), AM38; assay type: cell-based, human
Protocol: as §5
as §1, with “Alamar Blue solution (10 μl of 440 μM resazurin in sterile 1×PBS) was added to each well, and the plate was incubated for 3-4 hrs.” left out

What does the source list for O=C(O)/C=C(\C(=O)O)C(O)P(=O)(O)O (centres unmarked) [pantaphos, 2-(hydroxy(phosphono)methyl)maleate]?
IC50 [1]: 6.69 ± 0.29 µM; Emax ([1]; read-out: Emax = percentage cell death (converted)): 85%; MIC ([2]; ATCC27736, Mueller-Hinton 2 medium, read-out: MIC, Rich medium): > 200 µM; MIC ([2]; ATCC27736, glucose-MOPS minimal medium, read-out: MIC, Minimal medium): > 200 µM; MIC ([3]; ATCC25922, Mueller-Hinton 2 medium, read-out: MIC, Rich medium): > 200 µM; MIC ([3]; ATCC25922, glucose-MOPS minimal medium, read-out: MIC, Minimal medium): > 200 µM; Emax (U87 (glioblastoma)): 38 to 48%; Emax (SK-ML-28 (melanoma)): 47 to 51%; IC50 ([4]; 72-hour treatment (Table 6)): > 100 µM; cytotoxicity at the maximum dose, in words ([4]; ES-2, maximum dose): unaffected; IC50 ([4]; Homo sapiens, 72 hours): > 100 µM; sensitivity of the cell line to the compound, in words (HepG2 (liver cancer); HepG2): sensitive; Emax (HepG2 (liver cancer); Homo sapiens, HepG2, Alamar Blue, 72-hour treatment): 71 to 77%; IC50 (HepG2 (liver cancer); Homo sapiens, HepG2, Alamar Blue, 72-hour treatment (Table 6)): 4.22 ± 0.57 µM; Emax ([5]; Homo sapiens, MDA-MB-231, Alamar Blue, 72-hour treatment): 91%; IC50 ([5]; Homo sapiens, MDA-MB-231, Alamar Blue, 72-hour treatment (Table 6)): 2.68 ± 0.23 µM; sensitivity of the cell line to the compound, in words ([5]; MDA-MB-231): sensitive; sensitivity of the cell line to the compound, in words (AM38 (glioblastoma); AM38): sensitive; Emax (AM38 (glioblastoma); Homo sapiens, AM-38, AM38, Alamar Blue, 72-hour treatment): 74 to 78%; IC50 (AM38 (glioblastoma); Homo sapiens, AM-38, AM38, Alamar Blue, 72-hour treatment (Table 6)): 3.97 ± 1.01 µM
